# Source: US20210018841A1, “COMPOSITION FOR RESIST UNDERLAYER FILM FORMATION AND PATTERN FORMATION METHOD” (Mitsubishi Gas Chemical Company, Inc., priority 2018, published 2021)
# Assay: Solubility in a safe solvent (PGMEA)
# Assay type: physicochemical
# Settings: ultrasonic waves at 23° C. for 30 minutes, visually observed
# Procedure: The solubility of an obtained compound in a safe solvent (propylene glycol monomethyl ether acetate (PGMEA)) was evaluated as follows. The compound was precisely weighed in a test tube, and PGMEA was added to a predetermined concentration. Next, ultrasonic waves were applied at 23° C. for 30 minutes with an ultrasonic cleaning machine, and the subsequent state of the liquid was visually observed. The concentration (% by mass) at which the compound was completely dissolved was defined as the amount of dissolution. […] B: amount of dissolution was 3.0% by mass or more and 5.0% by mass or less. C: amount of dissolution was less than 3.0% by mass.
compound,measurement,value
"CCO[Te](OCC)(OCC)OCC [TOX-1, tetraethoxytellurium(IV)]",Solubility of tellurium containing compound,A (amount of dissolution was 5.0% by mass or more)
